Literature values, collected in publication PMC9146896, “Uracil as a Zn-Binding Bioisostere of the Allergic Benzenesulfonamide in the Design of Quinoline–Uracil Hybrids as Anticancer Carbonic Anhydrase Inhibitors” (Pharmaceuticals, 2022).
Values joined by “and” are separate entries in the source; they are usually repeats but may differ in a detail not shown here. Equal entries are not always repeated.

Columns and labels:
[1] = target: hCA XII (Homo sapiens, UniProt O43570); design: method as in PMID 34681794; conditions: cited from earlier work
Sequence of hCA XII (O43570 25-354): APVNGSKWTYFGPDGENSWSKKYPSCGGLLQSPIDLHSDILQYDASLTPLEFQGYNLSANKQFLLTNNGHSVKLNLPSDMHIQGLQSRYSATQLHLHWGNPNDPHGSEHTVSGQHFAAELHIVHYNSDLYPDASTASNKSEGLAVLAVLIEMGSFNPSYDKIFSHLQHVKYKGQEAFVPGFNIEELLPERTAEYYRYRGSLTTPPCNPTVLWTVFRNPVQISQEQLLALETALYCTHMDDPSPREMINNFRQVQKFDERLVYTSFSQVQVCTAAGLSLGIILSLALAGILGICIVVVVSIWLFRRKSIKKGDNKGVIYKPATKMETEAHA

[2] = target: hCA IX (Homo sapiens, UniProt Q16790); design: method as in PMID 34681794; conditions: cited from earlier work
[3] = target: hCA II (Homo sapiens, UniProt P00918); conditions: range, quinoline-based sulfonamides; cited from earlier work
[4] = target: hCA I (Homo sapiens, UniProt P00915); conditions: range, quinoline-based sulfonamides; cited from earlier work
Sequence of hCA I (P00915 whole entry): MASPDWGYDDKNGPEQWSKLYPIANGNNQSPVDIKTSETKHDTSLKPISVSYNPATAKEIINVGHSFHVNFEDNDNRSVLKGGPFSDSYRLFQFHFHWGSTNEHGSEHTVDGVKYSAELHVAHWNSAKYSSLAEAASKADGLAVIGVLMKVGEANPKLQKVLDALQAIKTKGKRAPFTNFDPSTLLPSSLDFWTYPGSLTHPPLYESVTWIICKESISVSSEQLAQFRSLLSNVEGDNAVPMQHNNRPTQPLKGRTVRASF

Row | SMILES | Ki [1] [nM] | Ki [2] | Ki [3] [nM] | Ki [4]
1 | NS(=O)(=O)c1cc(Nc2ccnc3ccc(Cl)cc23)ccc1Cl [Compound II] | 9 | 18.6 nM and 19 nM | – | –
2 | CCOC(=O)c1cnc2cc(Cl)c(F)cc2c1Nc1cccc(S(N)(=O)=O)c1 [Compound I] | – | – | 83 to 3590 | 966 to 9090 nM and 960 to 9090 nM
